US20260015350A1, “AZAQUINAZOLINE PAN-KRAS INHIBITORS” (Mirati Therapeutics, Inc., priority 2022, published 2026)

Columns and labels:
[1] = test system: KRas-mediated phosphorylation of ERK in A549 cells; test: Inhibition of KRas-mediated phosphorylation of ERK (Cisbio HTRF pERK), A549 cells; format: cell-based; conditions: Homo sapiens, HTRF pERK
Method in brief: (§1)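 Signal read by HTRF (d2/Cryptate antibody pair, 2 hr room-temperature incubation on lysate). Cells: 6,000 per well, 3 hr compound exposure. Titration: 10 uM highest, 3-fold, 10 points.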

KRas^G12D = biological target: T1, KRas^G12D (Homo sapiens, UniProt P01116, G12D); test: KRas binding assay (TR-FRET tracer displacement), KRas G12D
T1 construct: Biotinylated KRas (corresponding to amino acids 1-169, produced at Accelegan Inc.); biotin (biotinylated); purchased Accelegan Inc
T1 sequence (P01116 1-169 isoform P01116-2 G12D): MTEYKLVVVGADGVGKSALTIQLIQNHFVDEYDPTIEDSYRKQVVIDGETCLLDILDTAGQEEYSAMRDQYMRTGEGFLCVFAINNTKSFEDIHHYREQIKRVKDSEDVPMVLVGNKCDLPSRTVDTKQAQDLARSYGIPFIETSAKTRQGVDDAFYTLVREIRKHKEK

KRas^G12V = biological target: T2, KRas^G12V (Homo sapiens, UniProt P01116, G12V); test: KRas binding assay (TR-FRET tracer displacement), KRas G12V
T2 construct: Biotinylated KRas (corresponding to amino acids 1-169, produced at Accelegan Inc.); biotin (biotinylated); purchased Accelegan Inc
T2 sequence (P01116 1-169 isoform P01116-2 G12V): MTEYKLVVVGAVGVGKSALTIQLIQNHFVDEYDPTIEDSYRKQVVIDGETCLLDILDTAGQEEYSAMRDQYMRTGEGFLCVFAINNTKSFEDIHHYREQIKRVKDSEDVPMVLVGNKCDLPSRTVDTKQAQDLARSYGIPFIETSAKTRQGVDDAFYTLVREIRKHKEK

[2] = test system: KRas-mediated phosphorylation of ERK in HCT116 cells; test: Inhibition of KRas-mediated phosphorylation of ERK (Cisbio HTRF pERK), HCT116 cells; format: cell-based; conditions: Homo sapiens, HCT-116, HTRF pERK
Method in brief: as §1

[3] = test system: KRas-mediated phosphorylation of ERK in PSN1 cells; test: Inhibition of KRas-mediated phosphorylation of ERK (Cisbio HTRF pERK), PSN1 cells; format: cell-based; conditions: Homo sapiens
Method in brief: (§2)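 Overnight culture at 37° C./5% CO2 in RPMI containing 10% FBS, seeded 6,000 cells per well, preceded the assay. A covered 4-hour incubation at room temperature followed, then HTRF signal for phosphorylated ERK was measured.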

[4] = test system: KRas-mediated phosphorylation of ERK in MKN1 cells; test: Inhibition of KRas-mediated phosphorylation of ERK (Cisbio HTRF pERK), MKN1 cells; format: cell-based; conditions: Homo sapiens, MKN-1
Method in brief: as §2

[5] = test system: KRas-mediated phosphorylation of ERK in H727 cells; test: Inhibition of KRas-mediated phosphorylation of ERK (Cisbio HTRF pERK), H727 cells; format: cell-based; conditions: Homo sapiens, NCI-H727, H727 cells; HTRF pERK
Method in brief: (§3)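 Compound treatment lasts 3 hrs on 6,000 seeded cells, testing 10 doses from a 10 uM top concentration in 3-fold decrements at 0.8% final DMSO. Trametinib at 0.2 uM defines the Min signal. Detection is HTRF on cold-lysed cell extracts.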

KRas^G12R = biological target: T3, KRas^G12R (Homo sapiens, UniProt P01116, G12R); test: KRas binding assay (TR-FRET tracer displacement), KRas G12R
T3 construct: Biotinylated KRas (corresponding to amino acids 1-169, produced at Accelegan Inc.); biotin (biotinylated); purchased Accelegan Inc
T3 sequence (P01116 1-169 isoform P01116-2 G12R): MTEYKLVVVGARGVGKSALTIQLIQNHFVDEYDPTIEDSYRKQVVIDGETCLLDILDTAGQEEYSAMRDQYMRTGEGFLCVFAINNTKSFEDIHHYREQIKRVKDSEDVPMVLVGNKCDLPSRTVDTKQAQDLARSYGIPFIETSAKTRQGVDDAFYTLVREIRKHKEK

[6] = test system: KRas-mediated phosphorylation of ERK in H358 cells; test: Inhibition of KRas-mediated phosphorylation of ERK (Cisbio HTRF pERK), H358 cells; format: cell-based; conditions: Homo sapiens, NCI-H358, HTRF pERK
Method in brief: as §3

[7] = test system: KRas-mediated phosphorylation of ERK in AsPC-1 cells; test: Inhibition of KRas-mediated phosphorylation of ERK (Cisbio HTRF pERK), AsPC-1 cells; format: cell-based; conditions: Homo sapiens, ASPC1, AsPC-1 cells; HTRF pERK
Method in brief: as §3

[8] = test system: KRas-mediated phosphorylation of ERK in H460 cells; test: Inhibition of KRas-mediated phosphorylation of ERK (Cisbio HTRF pERK), H460 cells; format: cell-based; conditions: Homo sapiens, NCI-H460, HTRF pERK
Method in brief: as §3

Row | Structure (SMILES) | IC50 [1] [nM] | IC50 (KRas^G12D) [nM] | IC50 (KRas^G12V) [nM] | IC50 [2] [nM] | IC50 [3] [nM] | IC50 [4] [nM] | IC50 [5] [nM] | IC50 (KRas^G12R) [nM] | IC50 [6] [nM] | IC50 [7] [nM] | IC50 [8] [nM]
1 | CCc1c(F)ccc2cc(O)cc(-c3ncc4c(N5CC6CCC(C5)C6C(=O)NC)nc(OC[C@@]56CCCN5C[C@H](F)C6)nc4c3F)c12 (stereo partly drawn) [Example 850, (1R,5S,8S)-3-(7-(8-ethyl-7-fluoro-3-hydroxynaphthalen-1-yl)-8-fluoro-2-(((2R,7aS)-2-fluorotetrahydro-1H-pyrrolizin-7a(5H)-yl)methoxy)pyrido[4,3-d]pyrimidin-4-yl)-N-methyl-3-azabicyclo[3.2.1]octane-8-carboxamide] | 862 | 6 | 8 | 171 | > 10000 | 4 | 2280 | 10 | 150 | 1450 | 83
2 | CCc1c(F)ccc2cc(O)cc(-c3ncc4c(N5CCC[C@@](C)(O)C5)nc(OC[C@@]56CCCN5[C@H](COCC5CCC5)CC6)nc4c3F)c12 [Example 852, (R)-1-(2-(((3S,7aS)-3-((cyclobutylmethoxy)methyl)tetrahydro-1H-pyrrolizin-7a(5H)-yl)methoxy)-7-(8-ethyl-7-fluoro-3-hydroxynaphthalen-1-yl)-8-fluoropyrido[4,3-d]pyrimidin-4-yl)-3-methylpiperidin-3-ol] | 68 | < 2 | < 2 | 38 | 923 | 5 | 109 | < 2 | 12 | 35 | 42
3 | CCOC[C@@H]1CC[C@]2(COc3nc(N4CCC[C@@](C)(O)C4)c4cnc(-c5cc(O)cc6ccc(F)c(CC)c56)c(F)c4n3)CCCN12 [Example 853, (R)-1-(2-(((3S,7aS)-3-(ethoxymethyl)tetrahydro-1H-pyrrolizin-7a(5H)-yl)methoxy)-7-(8-ethyl-7-fluoro-3-hydroxynaphthalen-1-yl)-8-fluoropyrido[4,3-d]pyrimidin-4-yl)-3-methylpiperidin-3-ol] | 39 | < 2 | < 2 | 36 | 1070 | 1 | 67 | < 2 | 10 | 33 | 23
4 | CN(C)CC1(COc2nc(N3CCCC4(CCO4)C3)c3cnc(-c4cc(O)cc5ccc(F)c(Cl)c45)c(F)c3n2)CC1 (stereo not shown) [Example 854, 5-chloro-4-(2-((1-((dimethylamino)methyl)cyclopropyl)methoxy)-8-fluoro-4-(1-oxa-6-azaspiro[3.5]nonan-6-yl)pyrido[4,3-d]pyrimidin-7-yl)-6-fluoronaphthalen-2-ol] | 36 | < 2 | < 2 | 40 | 3690 | 6 | 48 | < 2 | 11 | 20 | 21
5 | CCc1c(F)ccc2cc(O)cc(-c3ncc4c(N5CC6CCC(COCCOC)(C6)C5)nc(OC[C@@]56CCCN5C[C@H](F)C6)nc4c3F)c12 (stereo partly drawn) [Example 857, 5-ethyl-6-fluoro-4-(8-fluoro-2-(((2R,7aS)-2-fluorotetrahydro-1H-pyrrolizin-7a(5H)-yl)methoxy)-4-(1-((2-methoxyethoxy)methyl)-3-azabicyclo[3.2.1]octan-3-yl)pyrido[4,3-d]pyrimidin-7-yl)naphthalen-2-ol] | 611 | 19 | 6 | 410 | > 10000 | 6 | 352 | 9 | 369 | 967 | 144

More lines, now with the values ahead:

Row | IC50 [1] [nM] | IC50 (KRas^G12D) [nM] | IC50 (KRas^G12V) [nM] | IC50 [2] [nM] | IC50 [3] [nM] | IC50 [4] [nM] | IC50 [5] [nM] | IC50 (KRas^G12R) [nM] | IC50 [6] [nM] | IC50 [7] [nM] | IC50 [8] [nM] | Structure (SMILES)
6 | 19 | 6 | 7 | 21 | > 10000 | 3 | 375 | 10 | 43 | 138 | 7 | CCc1c(F)ccc2cc(O)cc(-c3ncc4c(N5CC6CCC(C5)C6C(=O)N(C)C)nc(OC[C@@]56CCCN5C[C@H](F)C6)nc4c3F)c12 (stereo partly drawn) [Example 858, (1R,5S,8S)-3-(7-(8-ethyl-7-fluoro-3-hydroxynaphthalen-1-yl)-8-fluoro-2-(((2R,7aS)-2-fluorotetrahydro-1H-pyrrolizin-7a(5H)-yl)methoxy)pyrido[4,3-d]pyrimidin-4-yl)-N,N-dimethyl-3-azabicyclo[3.2.1]octane-8-carboxamide]
7 | > 10000 | 51 | 17 | 1260 | > 10000 | 56 | 5480 | 13 | 1140 | > 10000 | 892 | CCc1c(F)ccc2cc(O)cc(-c3ncc4c(N5CC6CCC(C5)C6CC(N)=O)nc(OC[C@@]56CCCN5C[C@H](F)C6)nc4c3F)c12 (stereo partly drawn) [Example 859, 2-((1R,5S,8S)-3-(7-(8-ethyl-7-fluoro-3-hydroxynaphthalen-1-yl)-8-fluoro-2-(((2R,7aS)-2-fluorotetrahydro-1H-pyrrolizin-7a(5H)-yl)methoxy)pyrido[4,3-d]pyrimidin-4-yl)-3-azabicyclo[3.2.1]octan-8-yl)acetamide]
8 | 2760 | 91 | 13 | 600 | > 10000 | 7 | 1120 | 68 | 455 | 2600 | 395 | CCc1c(F)ccc2cc(O)cc(-c3ncc4c(N5CC6CCC(C5)C6CC(=O)N(C)C)nc(OC[C@@]56CCCN5C[C@H](F)C6)nc4c3F)c12 (stereo partly drawn) [Example 860, 2-((1R,5S,8S)-3-(7-(8-ethyl-7-fluoro-3-hydroxynaphthalen-1-yl)-8-fluoro-2-(((2R,7aS)-2-fluorotetrahydro-1H-pyrrolizin-7a(5H)-yl)methoxy)pyrido[4,3-d]pyrimidin-4-yl)-3-azabicyclo[3.2.1]octan-8-yl)-N,N-dimethylacetamide]
9 | 1340 | 4 | < 2 | 254 | > 10000 | 1 | 592 | < 2 | 45 | 1450 | 173 | CCc1c(F)ccc2cc(O)cc(-c3ncc4c(N5CC6CCC(C5)C6C(N)=O)nc(OC[C@@]56CCCN5C[C@H](F)C6)nc4c3F)c12 (stereo partly drawn) [Example 861, 3-(7-(8-ethyl-7-fluoro-3-hydroxynaphthalen-1-yl)-8-fluoro-2-(((2R,7aS)-2-fluorohexahydro-1H-pyrrolizin-7a-yl)methoxy)pyrido[4,3-d]pyrimidin-4-yl)-3-azabicyclo[3.2.1]octane-8-carboxamide]
10 | 7210 | 311 | 60 | 2870 | > 10000 | 196 | 3700 | 95 | 1680 | 6210 | 1110 | CCc1c(F)ccc2cc(O)cc(-c3ncc4c(N5CC6CCC(C5)C6C)nc(OC[C@@]56CCCN5C[C@H](F)C6)nc4c3F)c12 (stereo partly drawn) [Example 862, 5-ethyl-6-fluoro-4-(8-fluoro-2-(((2R,7aS)-2-fluorohexahydro-1H-pyrrolizin-7a-yl)methoxy)-4-((1R,5S,8S)-8-methyl-3-azabicyclo[3.2.1]octan-3-yl)pyrido[4,3-d]pyrimidin-7-yl)naphthalen-2-ol]
11 | > 10000 | 145 | 32 | 3890 | > 10000 | 208 | 4000 | 34 | 1360 | > 10000 | 1990 | CCc1c(F)ccc2cc(O)cc(-c3ncc4c(N5CC6CCC(C5)C6CC(=O)NC)nc(OC[C@@]56CCCN5C[C@H](F)C6)nc4c3F)c12 (stereo partly drawn) [Example 863, 2-((1R,5S,8S)-3-(7-(8-ethyl-7-fluoro-3-hydroxynaphthalen-1-yl)-8-fluoro-2-(((2R,7aS)-2-fluorotetrahydro-1H-pyrrolizin-7a(5H)-yl)methoxy)pyrido[4,3-d]pyrimidin-4-yl)-3-azabicyclo[3.2.1]octan-8-yl)-N-methylacetamide]
